{"source": "patent US20060135569A1", "about": "“Use of benzisoselenazolone compounds against ischemic myocardial damage” (priority 2002, published 2006)", "key": {"normal rats": {"tested_on": "normal rats", "test": "Cardiac function and hemodynamics in normal rats", "type": "in vivo, rat", "conditions": "30 mg/kg orally; normal anesthetized rats", "description": "Method: Male SD rats, weighing 300-350 g were fasted for 12 hrs and anesthetized by i.p. treatment with 20% Urethane (0.5 ml/100 g, 1 g/kg). Polyethylene tubes (PE-50) were inserted into the left femoral artery, left femoral vein, right femoral vein and the left ventricle. The left femoral artery was cannulated for blood collection, and the left femoral vein was cannulated for liquid compensation, the right femoral artery was cannulated for blood pressure detection, the left ventricle was cannulated for ventricular pressure detection, the left femoral artery and ventricle were cannulated and the catheter was linked with pressure transducer by triplet. Signals were acquired by oscillograph and multi-channel biodynamic recorder linked with the pressure transducer. Rats in drug-treating group were orally administered with IMM-004 at 30 mg/kg, while rats in vehicle control group was orally treated with equal volume of vehicle (PEG). Left ventricular systolic pressure (LVSP), left ventricular end-diastolic pressure (LVEDP), and maximum rate of left ventricular pressure (±dp/dtmax), artery systolic pressure (SP), artery diastolic pressure (DP), mean artery pressure (MAP) and heart rate (HR) were recorded 40 min after the administration. Signals were continuously recorded in every 10 min."}, "[1]": {"tested_on": "rats subjected to myocardial ischemia/reperfusion insult", "test": "Cardiac function and hemodynamics in rats subjected to myocardial ischemia/reperfusion", "type": "in vivo, rat", "conditions": "30 mg/kg orally", "description": "Method: Male SD rats weighing 300-350 g were fasted for 12 hrs and anesthetized by i.p. treatment with 20% Urethane (0.5 ml/100 g, 1 g/kg). Polyethylene tubes (PE-50) were inserted into the left femoral artery, left femoral vein, right femoral vein and the left ventricle. The left femoral artery was cannulated for blood collection, and the left femoral vein was cannulated for liquid compensation, the right femoral artery was cannulated for blood pressure detection, the left ventricle was cannulated for ventricular pressure detection, left femoral artery and ventricle were cannulated and the catheter was linked with pressure transducer by triplet. Signals were acquired by oscillograph and multi-channel biodynamic recorder linked with the pressure transducer. Rats in drug-treated group were orally treated with IMM-004 at 30 mg/kg, while rats in vehicle control group was orally treated with an equal volume of vehicle (PEG). Dissect the trachea and artificial respiration was performed via respirator after thoracotomy (2 ml/100 g). A left thoracotomy was performed from the forth to fifth intercostals space by cutting off the forth and fifth rib 2 mm from the left border of sternum, and the pericardium was opened to expose the heart. A 3.0 silk ligature was placed under the left anterior descending coronary artery. The heart was taken back to the chest and allowed to stabilize for 10 min. The ends of the suture were threaded through a polyethylene tube (3×8 mm) to form a snare. Pull the ends of the suture taut and clamp the snare with a hemostat to occlude the coronary artery. Coronary artery occlusion was verified by epicardial cyanosis and subsequent decrease in arterial blood pressure. Reprefusion of the heart was initiated via unclamping the hemostat and loosening the snare for 15 min. Left ventricular systolic pressure (LVSP), left ventricular end-diastolic pressure (LVEDP), and maximum rate of left ventricular pressure (±dp/dtmax), artery systolic pressure (SP), artery diastolic pressure (DP), mean artery pressure (MAP) and heart rate (HR) were continuously recorded every 10 min before and after thoracotomy and during the period of ischemia (15 min) and reperfusion (1 h)."}}, "data": [{"smiles": "O=c1c2cc(Cl)ccc2[se]n1-c1ccccn1", "note": "[IMM-004, 5-chloro-2-(2-pyridyl)-1,2-benz-isoselenazol-3(2H)-one]", "values": [{"measurement": "LVSP, LVEDP, ±dp/dtmax, SP, DP, MAP and heart rate (HR)", "setting": "normal rats", "result": "not significantly influenced"}, {"measurement": "+dp/dtmax", "setting": "[1]", "result": "about +110 mmHg/s"}, {"measurement": "Heart rate", "setting": "[1]", "result": "not influenced"}, {"measurement": "MAP", "setting": "[1]", "result": 80, "unit": "mmHg"}, {"measurement": "SBP", "setting": "[1]", "result": 100, "unit": "mmHg"}, {"measurement": "LVSP", "setting": "[1]; decreased steadily from 120 mmHg", "result": 100, "unit": "mmHg"}, {"measurement": "LVEDP", "setting": "[1]; equal to the baseline", "result": "about −6 mmHg"}, {"measurement": "−dp/dtmax", "setting": "[1]; reduced from 100 mmHg/s", "result": 70, "unit": "mmHg/s"}]}]}
